Data: patent US20230398130A1, “METHODS AND COMPOSITIONS FOR DIFFERENTIATING STEM CELLS” (Massachusetts Institute of Technology, priority 2020, published 2023)

Legend:
ISC-enriched organoids [1] = experiment: Primary screen, 384-well 2.5-D organoid differentiation (ENR+CD, 6 days): basal lysozyme secretion (LYZ.NS); format: cell-based, murine; details: for Dose.FC.LYZ.NS (log 2 fold change, basal lysozyme secretion): vs plate median; for Dose.FC.LYZ.NS / Z.LYZ.NS: primary screen; for Dose.FC.LYZ.NS: ENR+CD 6 days, FC vs plate median; for Z.LYZ.NS: standard z score of FC
Description: (§1) High-throughput screening.

ISC-enriched organoids [2] = experiment: Primary screen, 384-well 2.5-D organoid differentiation (ENR+CD, 6 days): carbachol-induced lysozyme secretion (LYZ.S); format: cell-based, murine; details: for Dose.FC.LYZ.S (log 2 fold change, carbachol-induced lysozyme secretion): vs plate median; for Dose.FC.LYZ.S: primary screen, ENR+CD 6 days, FC vs plate median
Description: as §1

ISC-enriched organoids [3] = experiment: Primary screen, 384-well 2.5-D organoid differentiation (ENR+CD, 6 days, Target Selective Inhibitor Library, vs whole-plate median): ATP (CellTiter-Glo 3D, CTG); details: for Dose.FC.CTG (log 2 fold change, ATP): vs plate median; for Dose.FC.CTG / Z.CTG: primary screen; for Dose.FC.CTG: ENR+CD 6 days, FC vs plate median; for Z.CTG: standard z score of FC
[4] = dose 0.08 uM (1st of 4 lines per treatment; dose not printed in this part)
[5] = dose 0.40 uM (2nd of 4 lines per treatment; dose not printed in this part)
[6] = dose 2.00 uM (3rd of 4 lines per treatment; dose not printed in this part)
[7] = dose 10.00 uM (4th of 4 lines per treatment; dose not printed in this part)

Compound	Dose.FC.LYZ.NS (ISC-enriched organoids [1]; dose 0.08 uM) [log 2 fold change]	Z.LYZ.NS (ISC-enriched organoids [1]; dose 0.08 uM)	Dose.FC.LYZ.NS (ISC-enriched organoids [1]; dose 0.40 uM) [log 2 fold change]	Z.LYZ.NS (ISC-enriched organoids [1]; dose 0.40 uM)	Dose.FC.LYZ.NS (ISC-enriched organoids [1]; dose 2.00 uM) [log 2 fold change]	Z.LYZ.NS (ISC-enriched organoids [1]; dose 2.00 uM)	Dose.FC.LYZ.NS (ISC-enriched organoids [1]; dose 10.00 uM) [log 2 fold change]	Z.LYZ.NS (ISC-enriched organoids [1]; dose 10.00 uM)	Dose.FC.LYZ.S (ISC-enriched organoids [2]; dose 0.08 uM) [log 2 fold change]	Dose.FC.LYZ.S (ISC-enriched organoids [2]; dose 0.40 uM) [log 2 fold change]	Dose.FC.LYZ.S (ISC-enriched organoids [2]; dose 2.00 uM) [log 2 fold change]	Dose.FC.LYZ.S (ISC-enriched organoids [2]; dose 10.00 uM) [log 2 fold change]	Dose.FC.CTG (ISC-enriched organoids [3]; dose 0.08 uM) [log 2 fold change]	Z.CTG (ISC-enriched organoids [3]; dose 0.08 uM)	Dose.FC.CTG (ISC-enriched organoids [3]; dose 0.40 uM) [log 2 fold change]	Z.CTG (ISC-enriched organoids [3]; dose 0.40 uM)	Dose.FC.CTG (ISC-enriched organoids [3]; dose 2.00 uM) [log 2 fold change]	Z.CTG (ISC-enriched organoids [3]; dose 2.00 uM)	Dose.FC.CTG (ISC-enriched organoids [3]; dose 10.00 uM) [log 2 fold change]	Z.CTG (ISC-enriched organoids [3]; dose 10.00 uM)	also measured
Cl.Cl.Cl.O[C@@H](COc1cccc2ncccc12)CN1CCN([C@@H]2c3ccccc3[C@@H]3[C@H](c4ccccc42)C3(F)F)CC1 [Zosuquidar (LY335979) 3HCl]	–	–	–	–	–	–	–	–	–	–	–	–	–	–	–	–	–	–	–	–	Z.LYZ.NS (standard z score) (ISC-enriched organoids [1]; dose 0.08 uM): 0.839; Dose.FC.LYZ.NS (log 2 fold change, basal lysozyme secretion) (ISC-enriched organoids [1]; dose 0.08 uM): 0.096; Z.LYZ.NS (standard z score) (ISC-enriched organoids [1]; dose 0.40 uM): 0.696; Dose.FC.LYZ.NS (log 2 fold change, basal lysozyme secretion) (ISC-enriched organoids [1]; dose 0.40 uM): 0.080; Z.LYZ.NS (standard z score) (ISC-enriched organoids [1]; dose 2.00 uM): 1.802; Dose.FC.LYZ.NS (log 2 fold change, basal lysozyme secretion) (ISC-enriched organoids [1]; dose 2.00 uM): 0.207; Z.LYZ.NS (standard z score) (ISC-enriched organoids [1]; dose 10.00 uM): −1.821; Dose.FC.LYZ.NS (log 2 fold change, basal lysozyme secretion) (ISC-enriched organoids [1]; dose 10.00 uM): −0.209; Dose.FC.LYZ.S (log 2 fold change, carbachol-induced lysozyme secretion) (ISC-enriched organoids [2]; dose 0.08 uM): 0.124; Dose.FC.LYZ.S (log 2 fold change, carbachol-induced lysozyme secretion) (ISC-enriched organoids [2]; dose 0.40 uM): 0.127; Dose.FC.LYZ.S (log 2 fold change, carbachol-induced lysozyme secretion) (ISC-enriched organoids [2]; dose 2.00 uM): 0.129; Dose.FC.LYZ.S (log 2 fold change, carbachol-induced lysozyme secretion) (ISC-enriched organoids [2]; dose 10.00 uM): −0.200; Z.CTG (standard z score) (ISC-enriched organoids [3]; dose 0.08 uM): 0.041; Dose.FC.CTG (log 2 fold change, ATP) (ISC-enriched organoids [3]; dose 0.08 uM): 0.017; Z.CTG (standard z score) (ISC-enriched organoids [3]; dose 0.40 uM): 0.470; Dose.FC.CTG (log 2 fold change, ATP) (ISC-enriched organoids [3]; dose 0.40 uM): 0.197; Z.CTG (standard z score) (ISC-enriched organoids [3]; dose 2.00 uM): 0.659; Dose.FC.CTG (log 2 fold change, ATP) (ISC-enriched organoids [3]; dose 2.00 uM): 0.276; Z.CTG (standard z score) (ISC-enriched organoids [3]; dose 10.00 uM): −0.461; Dose.FC.CTG (log 2 fold change, ATP) (ISC-enriched organoids [3]; dose 10.00 uM): −0.193
(−)-MK 801 Maleate	0.008	0.072	−0.099	−0.864	−0.256	−2.227	−0.259	−2.255	0.015	−0.179	−0.334	−0.403	0.127	0.303	−0.377	−0.899	−0.702	−1.677	−0.936	−2.236	SSMD.LYZ.NS_Rep (strictly standardized mean difference) (ISC-enriched organoids [1]; [4]): 0.070; SSMD.LYZ.NS_Rep (strictly standardized mean difference) (ISC-enriched organoids [1]; [5]): −0.550; SSMD.LYZ.NS_Rep (strictly standardized mean difference) (ISC-enriched organoids [1]; [6]): −1.315; SSMD.LYZ.NS_Rep (strictly standardized mean difference) (ISC-enriched organoids [1]; [7]): −1.708; SSMD.LYZ.S_Rep (strictly standardized mean difference) (ISC-enriched organoids [2]; [4]): 0.116; Z.LYZ.S (standard z score) (ISC-enriched organoids [2]; [4]): 0.099; SSMD.LYZ.S_Rep (strictly standardized mean difference) (ISC-enriched organoids [2]; [5]): −0.976; Z.LYZ.S (standard z score) (ISC-enriched organoids [2]; [5]): −1.159; SSMD.LYZ.S_Rep (strictly standardized mean difference) (ISC-enriched organoids [2]; [6]): −1.187; Z.LYZ.S (standard z score) (ISC-enriched organoids [2]; [6]): −2.160; SSMD.LYZ.S_Rep (strictly standardized mean difference) (ISC-enriched organoids [2]; [7]): −1.768; Z.LYZ.S (standard z score) (ISC-enriched organoids [2]; [7]): −2.604; SSMD.CTG_Rep (strictly standardized mean difference) (ISC-enriched organoids [3]; [4]): 0.442; SSMD.CTG_Rep (strictly standardized mean difference) (ISC-enriched organoids [3]; [5]): −1.342; SSMD.CTG_Rep (strictly standardized mean difference) (ISC-enriched organoids [3]; [6]): −1.102; SSMD.CTG_Rep (strictly standardized mean difference) (ISC-enriched organoids [3]; [7]): −1.696
BAM7	0.045	0.391	−0.009	−0.082	0.057	0.498	−0.007	−0.063	0.079	0.039	0.019	−0.020	0.209	0.498	−0.010	−0.024	−0.156	−0.373	−0.114	−0.272	–
